According to US20170196878A1, “USE OF CBP/EP300 AND BET INHIBITORS FOR TREATMENT OF CANCER” (GENENTECH, INC., priority 2014, published 2017):

Key:
[1] = molecular target: T1, ZsGreen-bromodomain fusion protein (CBP) (Homo sapiens, UniProt Q92793); test: Release of chromatin-bound ZsGreen-bromodomain fusion protein (CBP), high content imaging of nuclear foci; assay type: cell-based; conditions: number of nuclear foci, read-out: Calculated EC50, release of chromatin-bound ZsGreen-CBP bromodomain fusion protein
T1 construct: expressed in transfected cells
T1 sequence (Q92793 1085-1192 limits assumed): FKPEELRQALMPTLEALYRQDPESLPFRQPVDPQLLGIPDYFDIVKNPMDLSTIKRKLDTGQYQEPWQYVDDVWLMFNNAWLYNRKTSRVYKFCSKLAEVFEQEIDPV
Description: (§1) Release of chromatin-bound ZsGreen-bromodomain fusion proteins in the presence of compound was monitored with high content imaging. Each curve represents the indicated compound and the indicated fusion protein (BRD4 or CBP). The number of nuclear foci increases with compound target engagement (values are mean of four fields per well of two technical replicates, +SEM).

[2] = molecular target: ZsGreen-bromodomain fusion protein (BRD4) (Homo sapiens, UniProt O60885); test: Release of chromatin-bound ZsGreen-bromodomain fusion protein (BRD4), high content imaging of nuclear foci; conditions: read-out: Calculated EC50, release of chromatin-bound ZsGreen-BRD4 bromodomain fusion protein, number of nuclear foci
Description: as §1

[3] = system: IRF4 mRNA expression; test: IRF4 mRNA expression in LP-1 cells by q-RTPCR; assay type: cell-based; conditions: 6 h, q-RTPCR normalized to GAPDH
Description: FIG. 8. CBP/EP300 and BET bromodomain inhibition have distinct transcriptional effects. […] Expression values for replicate compound treated samples were normalized to paired DMSO controls to obtain log2 fold change values. […] Cells were treated with compound for 6 h, and mRNA expression was assessed with q-RTPCR and normalized to GAPDH. Values represent the mean of n=3, ±SEM. […] LP-1 cells were treated with a titration of CPI203 for 6 h, and IRF4 expression was determined by q-RTPCR and normalized to GAPDH. Values represent the mean of n=2, ±SEM.

EC50 [2] [µM] | SMILES | EC50 [1] [µM] | IRF4 mRNA expression [3]
> 20 | CCC(=O)N1CCOc2c(cc(-c3ccc(OC)c(OC)c3)cc2OC[C@H]2CCCN(C)C2)C1 [I-CBP112] | 2.6 | –
21.5 | COc1ccc(CCc2nc3cc(-c4c(C)noc4C)ccc3n2C[C@H](C)N2CCOCC2)cc1Cl [SGC-CBP30] | – | Dose-dependent inhibition

SMILES | EC50 [2] [µM] | EC50 [1] [µM] | IRF4 mRNA expression [3]
Cc1sc2c(c1C)C(c1ccc(Cl)cc1)=N[C@@H](CC(N)=O)c1nnc(C)n1-2 [CPI203] | 0.08 | 1.8 | does not directly regulate
